In PMC5078989, “Targeted inhibition of the COP9 signalosome for treatment of cancer” (Nature Communications, 2016):

Tested on: panel of cancer cell lines
Experiment: Cell viability (CellTiter-Glo) dose-response across cancer cell line panel;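 for EC50: after 72 h compound incubation with CellTiter-Glo ATP readout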
Type: cell-based, human
Conditions: for EC50: Homo sapiens
Text: Next, we explored the effect of CSN5 inhibition on the viability of cancer cells. To obtain a comprehensive picture, we generated dose–response curves with a CSN5 inhibitor across more than 500 cancer cell lines in a previously described standardized setting[47] (Supplementary Data 1).
A standardized CellTiter-Glo Assay (Promega #G7570) based on the quantification of ATP was applied according to the manufacturer's protocol to measure the amount of viable cells in culture. In brief, cells were seeded into 384-well plates at optimal density for each cell line. After 4 h, compounds were added at different concentrations in growth medium and incubated for another 72 h in a humidifying chamber at 37 °C and 5% CO2. […] EC50 values were calculated from the plot of percentage of inhibition versus inhibitor concentration using the nonlinear regression analysis software Origin 7.5SR6 (OriginLab Corp.).

EC50 (SNU-449, SNU-449): 2.13 µM | EC50 (SNU-475, SNU-475): 2.61 µM | EC50 (SNU-685): 2.09 µM | EC50 (SNU-738): 14.2 µM | EC50 (SNU-761): 0.281 µM | EC50 (SNU-1040): 26.8 µM | EC50 (SNU-1079): 0.661 µM | EC50 (SNU-C1, SNU-C1): 11.7 µM | EC50 (SNU-C2A): 5.18 µM | EC50 (SNU-C4, SNU-C4): 2.28 µM | EC50 (SNU-C5): 0.513 µM | EC50 (SR-786, SR-786): 0.515 µM | EC50 (SU-DHL10, SU-DHL-10): 0.649 µM | EC50 (SU-DHL-4, SU-DHL-4): 0.703 µM | EC50 (SU-DHL-5, SU-DHL-5): 0.161 µM | EC50 (SU-DHL-6, SU-DHL-6): 0.261 µM | EC50 (SU-DHL-8, SU-DHL-8): 0.467 µM | EC50 (SU.86.86, SU.86.86): 27 µM | EC50 (SUIT-2, SUIT-2): 2.04 µM | EC50 (SUM44PE): 17 µM | EC50 (SUM52PE): 4.06 µM | EC50 (SUM149PT): 0.883 µM | EC50 (SUM185PE): 11.2 µM | EC50 (SUM190PT): 2.95 µM | EC50 (SUP-T1, SUP-T1): 0.768 µM | EC50 (SW48, SW48): 3.24 µM | EC50 (SW480, SW480): 1.84 µM | EC50 (SW837, SW837): > 30 µM | EC50 (SW900, SW 900): 1.45 µM | EC50 (SW982, SW982): 1.38 µM | EC50 (SW1271, SW 1271): 0.766 µM | EC50 (SW1353, SW 1353): 1.37 µM | EC50 (SW1573, SW 1573): 1.07 µM | EC50 (SW1783, SW 1783): 0.358 µM | EC50 (SW-403, SW403): > 30 µM | EC50 (SW-620, SW620): 2.98 µM | EC50 (SYO-1): 0.472 µM | EC50 (Sq-1): 1.27 µM | EC50 (T3M4, T3M-4): 2.42 µM | EC50 (T47D, T-47D): 1.03 µM | EC50 (TALL-1, TALL-1): 0.639 µM | EC50 (TANOUE): 0.248 µM | EC50 (TC-71, TC-71): 1.99 µM | EC50 (TCC-PAN2): 0.817 µM | EC50 (TE-1, TE-1): 0.751 µM | EC50 (TE-6, TE-6): 1.68 µM | EC50 (TE-11, TE-11): 1.03 µM | EC50 (TE-14): 3.66 µM | EC50 (TE-15, TE-15): 0.0695 µM | EC50 (TF-1, TF-1): 2.59 µM | EC50 (THP-1, THP-1): 0.636 µM | EC50 (TT2609-C02): 1.77 µM | EC50 (TYK-nu): 0.155 µM | EC50 (U266B1): 0.485 µM | EC50 (U-87 MG): 1.19 µM | EC50 (U-118-MG, U-118 MG): 1.29 µM | EC50 (U-251, U-251 MG): 1.61 µM | EC50 (U-937, U-937): 0.354 µM | EC50 (UACC-62, UACC-62): 3.71 µM | EC50 (UACC-257, UACC-257): 0.556 µM | EC50 (UCH1, UCH-1): 0.415 µM | EC50 (UKE1, UKE1): 0.16 µM | EC50 (VM-CUB-1, VM-CUB1): 6.69 µM | EC50 (VMRC-LCD): 0.961 µM | EC50 (VMRC-RCW): 2.19 µM | EC50 (WM 266-4, WM-266-4): 1.44 µM | EC50 (WM983B, WM-983B): 1.39 µM | EC50 (WM-88): 20.1 µM | EC50 (WM-115, WM-115): 1.25 µM | EC50 (WM-1799, WM1799): 1.75 µM | EC50 (WSU-WM): 0.814 µM | EC50 (YAPC): 0.569 µM
SMILES: COCc1ccccc1NCc1ccc([C@H]2[C@@H](O)CCCc3cncn32)c(-c2ccccc2Cl)c1 [CSN5i-2, (5S,6S)-5-(2′-chloro-5-(((2-(methoxymethyl)phenyl)amino)methyl)-[1,1′-biphenyl]-2-yl)-6,7,8,9-tetrahydro-5H-imidazo[1,5-a]azepin-6-ol]
AMAX (Hs 294T): -53.6994 | AMAX (Hs 695T): -69.7728 | AMAX (Hs 936.T): -84.1429 | AMAX (HuG1-N): -75.3496 | AMAX (HuH-7): -82.3154 | AMAX (IGR-37): -80.2025 | AMAX (IGROV1): -66.8455 | AMAX (IPC-298): -65.2966 | AMAX (Ishikawa): -71.6276 | AMAX (JHH-4): -91.4689 | AMAX (JHOS-2): -38.1051 | AMAX (JHUEM-2): -86.9649 | AMAX (JL-1): -47.9564 | AMAX (JVM-2): -85.1393 | AMAX (KARPAS-422): -79.6206 | AMAX (KATO III): -58.0161 | AMAX (KBM-7): -95.2333 | AMAX (KE-97): -97.8925 | AMAX (KMRC-1): -54.4009 | AMAX (KP4): -68.6951 | AMAX (KP-1N): -56.9313 | AMAX (KP-3): -58.802 | AMAX (KU-19-19): -51.5044 | AMAX (KYSE-150): -49.8534 | AMAX (KYSE-180): -63.0038 | AMAX (Kasumi3): -93.6402 | AMAX (LUDLU-1): -71.9634 | AMAX (MFE-280): -66.9982 | AMAX (MG-63): -59.1323 | AMAX (MM138): -89.9344 | AMAX (MM415): -88.4479 | AMAX (MM426): -60.9162 | AMAX (MM485): -69.291 | AMAX (MM537): -73.4726 | AMAX (MM576): -52.394 | AMAX (MOLM-16): -89.6899 | AMAX (MOLT-13): -95.3007 | AMAX (MeWo): -53.7976 | AMAX (NB-1): -92.7531 | AMAX (NCI-H82): -95.3022 | AMAX (NCI-H211): -68.3447 | AMAX (NCI-H322): -37.8008 | AMAX (NCI-H441): -64.9424 | AMAX (NCI-H647): -44.0246 | AMAX (NCI-H650): -44.5856 | AMAX (NCI-H810): -67.8352 | AMAX (NCI-H841): -78.3347 | AMAX (NCI-H1155): -84.5649 | AMAX (NCI-H1299): -58.5091 | AMAX (NCI-H1339): -66.5268 | AMAX (NCI-H1373): -65.8548 | AMAX (NCI-H1568): -93.8026 | AMAX (NCI-H2087): -59.3219 | AMAX (NCI-H2122): -79.8003 | AMAX (NCI-H2126): -18.8926 | AMAX (NCI-H2172): -75.6398 | AMAX (NCI-H2452): -33.7782 | AMAX (NCI-N87): -47.3502 | AMAX (ONCO-DG-1): -61.2577 | AMAX (OUMS-23): -82.8646 | AMAX (OV56): -76.0147 | AMAX (P3HR-1): -76.4402 | AMAX (P12-ICHIKAWA): -95.4636 | AMAX (PC-3): -57.0972 | AMAX (Panc 03.27): -70.0008 | AMAX (Panc 10.05): -84.7778 | AMAX (RT-112): -42.1113 | AMAX (SEM): -97.9816 | AMAX (SK-ES-1): -89.0847 | AMAX (WM-88): -55.011 | maximal loss of viability (other, less sensitive cell lines of the panel): 40–60% | Amax (high-concentration effect level) (some cell lines of the panel (cytotoxic)): ≤ −80%
